{"source": "paper PMC12675387", "about": "“Receptor interaction profiles of 4-alkoxy-2,6-dimethoxyphenethylamines (Ψ derivatives) and related amphetamines” (Frontiers in Pharmacology, 2025)", "origin": "cited, not measured here", "key": {"human 5-HT2A receptor": {"target": "T1, human 5-HT2A receptor (Homo sapiens, UniProt P28223)", "T1 construct": "expressed in transfected cells; host or cells: NIH-3T3 mouse embryonic fibroblasts", "T1 sequence (P28223 whole entry)": "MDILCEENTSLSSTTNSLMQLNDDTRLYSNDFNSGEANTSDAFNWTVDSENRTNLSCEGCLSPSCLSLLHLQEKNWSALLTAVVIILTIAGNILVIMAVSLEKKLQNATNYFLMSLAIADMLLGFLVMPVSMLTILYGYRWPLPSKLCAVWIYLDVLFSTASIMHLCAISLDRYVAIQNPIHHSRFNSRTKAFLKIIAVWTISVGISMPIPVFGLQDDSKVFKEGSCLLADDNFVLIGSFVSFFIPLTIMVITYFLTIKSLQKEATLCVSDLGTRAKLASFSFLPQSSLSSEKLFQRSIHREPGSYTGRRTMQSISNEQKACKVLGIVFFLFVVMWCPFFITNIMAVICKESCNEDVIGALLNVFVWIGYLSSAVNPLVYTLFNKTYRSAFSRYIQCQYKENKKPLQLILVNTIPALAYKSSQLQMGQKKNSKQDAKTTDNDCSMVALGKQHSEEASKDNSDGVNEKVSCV", "settings": "cited from earlier work; for h5-HT2A activation efficacy Emax ± SD: reference substances, ref Luethi et al., 2018; for type of agonism at the 5-HT2A receptor: ref Kolaczynska et al., 2019"}, "human 5-HT2B receptor": {"target": "T2, human 5-HT2B receptor (Homo sapiens, UniProt P41595)", "T2 construct": "expressed in transfected cells; host or cells: HEK 293 cells", "T2 sequence (P41595 whole entry)": "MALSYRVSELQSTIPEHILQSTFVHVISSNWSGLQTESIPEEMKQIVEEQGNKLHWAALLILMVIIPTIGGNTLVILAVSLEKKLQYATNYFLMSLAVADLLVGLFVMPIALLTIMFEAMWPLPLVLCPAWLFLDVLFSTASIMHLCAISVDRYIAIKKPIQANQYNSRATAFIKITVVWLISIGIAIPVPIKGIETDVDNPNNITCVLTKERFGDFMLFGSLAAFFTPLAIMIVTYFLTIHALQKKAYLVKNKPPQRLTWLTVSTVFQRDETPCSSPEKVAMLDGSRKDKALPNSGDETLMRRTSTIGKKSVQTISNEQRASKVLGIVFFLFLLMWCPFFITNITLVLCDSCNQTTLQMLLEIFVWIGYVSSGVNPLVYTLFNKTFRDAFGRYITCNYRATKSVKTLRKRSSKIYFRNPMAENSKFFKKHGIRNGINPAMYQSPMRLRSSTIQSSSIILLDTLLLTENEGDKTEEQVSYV", "set-up": "method as in Luethi et al., 2018", "settings": "reference substances; ref Luethi et al., 2018; cited from earlier work"}, "rTAAR1": {"target": "rTAAR1 (Rattus norvegicus, UniProt Q923Y9)", "sequence (Q923Y9 whole entry)": "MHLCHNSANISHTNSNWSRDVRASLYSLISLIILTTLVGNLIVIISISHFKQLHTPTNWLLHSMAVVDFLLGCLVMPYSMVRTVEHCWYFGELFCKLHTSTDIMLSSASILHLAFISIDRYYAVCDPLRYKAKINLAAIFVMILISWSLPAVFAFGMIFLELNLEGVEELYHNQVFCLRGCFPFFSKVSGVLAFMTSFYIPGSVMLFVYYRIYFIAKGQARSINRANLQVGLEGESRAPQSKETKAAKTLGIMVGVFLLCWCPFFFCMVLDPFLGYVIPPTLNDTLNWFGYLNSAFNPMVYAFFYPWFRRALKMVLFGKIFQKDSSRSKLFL", "set-up": "expressed in transfected cells; host or cells: HEK 293 cells (membrane preparations)", "settings": "cited from earlier work"}, "[1]": {"settings": "cited from earlier work; for duration of effects in humans / psychoactive dose in humans: anecdotal; for fold increase in human potency from mescaline: ref Kolaczynska et al., 2022"}, "h5-HT2A receptor": {"target": "h5-HT2A receptor (Homo sapiens, UniProt P28223)", "sequence (P28223 whole entry)": "as the sequence (P28223 whole entry) above", "set-up": "expressed in transfected cells; host or cells: HEK 293 cells (membrane preparations)", "settings": "ref Kolaczynska et al., 2022; cited from earlier work"}, "mTAAR1": {"target": "mTAAR1 (Mus musculus, UniProt Q923Y8)", "sequence (Q923Y8 whole entry)": "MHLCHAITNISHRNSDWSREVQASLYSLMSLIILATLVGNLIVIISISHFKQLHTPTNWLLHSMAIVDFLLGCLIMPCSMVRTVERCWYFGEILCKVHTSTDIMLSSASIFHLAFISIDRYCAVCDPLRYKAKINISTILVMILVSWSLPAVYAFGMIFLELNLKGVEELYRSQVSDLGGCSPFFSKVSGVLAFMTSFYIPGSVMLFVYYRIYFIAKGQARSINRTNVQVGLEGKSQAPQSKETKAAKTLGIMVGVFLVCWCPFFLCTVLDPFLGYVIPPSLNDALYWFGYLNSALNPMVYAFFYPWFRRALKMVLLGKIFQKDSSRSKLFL", "set-up": "expressed in transfected cells; host or cells: HEK 293 cells (membrane preparations); method as in Luethi et al. (2019b)", "settings": "reference substance; ref Luethi et al. (2019b); read-out: mTAAR1 Ki ± SD; cited from earlier work"}, "hD2 receptor": {"target": "hD2 receptor (Homo sapiens, UniProt P14416)", "sequence (P14416 whole entry)": "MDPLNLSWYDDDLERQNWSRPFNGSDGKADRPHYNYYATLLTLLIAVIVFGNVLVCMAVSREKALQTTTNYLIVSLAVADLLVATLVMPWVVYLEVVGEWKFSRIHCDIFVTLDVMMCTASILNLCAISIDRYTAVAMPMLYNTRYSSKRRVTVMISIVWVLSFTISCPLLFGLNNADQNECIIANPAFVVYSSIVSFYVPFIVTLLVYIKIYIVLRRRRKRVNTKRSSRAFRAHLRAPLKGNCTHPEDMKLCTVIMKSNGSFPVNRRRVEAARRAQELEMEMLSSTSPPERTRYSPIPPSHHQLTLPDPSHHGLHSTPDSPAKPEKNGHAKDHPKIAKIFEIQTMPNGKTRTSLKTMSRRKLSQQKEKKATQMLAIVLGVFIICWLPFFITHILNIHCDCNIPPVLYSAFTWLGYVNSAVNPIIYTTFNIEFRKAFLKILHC", "set-up": "expressed in transfected cells; host or cells: HEK 293 cells (membrane preparations); method as in Luethi et al. (2019b)", "settings": "reference substance; ref Luethi et al. (2019b); read-out: hD2 Ki ± SD; cited from earlier work"}, "hNET": {"target": "hNET (Homo sapiens, UniProt P23975)", "sequence (P23975 whole entry)": "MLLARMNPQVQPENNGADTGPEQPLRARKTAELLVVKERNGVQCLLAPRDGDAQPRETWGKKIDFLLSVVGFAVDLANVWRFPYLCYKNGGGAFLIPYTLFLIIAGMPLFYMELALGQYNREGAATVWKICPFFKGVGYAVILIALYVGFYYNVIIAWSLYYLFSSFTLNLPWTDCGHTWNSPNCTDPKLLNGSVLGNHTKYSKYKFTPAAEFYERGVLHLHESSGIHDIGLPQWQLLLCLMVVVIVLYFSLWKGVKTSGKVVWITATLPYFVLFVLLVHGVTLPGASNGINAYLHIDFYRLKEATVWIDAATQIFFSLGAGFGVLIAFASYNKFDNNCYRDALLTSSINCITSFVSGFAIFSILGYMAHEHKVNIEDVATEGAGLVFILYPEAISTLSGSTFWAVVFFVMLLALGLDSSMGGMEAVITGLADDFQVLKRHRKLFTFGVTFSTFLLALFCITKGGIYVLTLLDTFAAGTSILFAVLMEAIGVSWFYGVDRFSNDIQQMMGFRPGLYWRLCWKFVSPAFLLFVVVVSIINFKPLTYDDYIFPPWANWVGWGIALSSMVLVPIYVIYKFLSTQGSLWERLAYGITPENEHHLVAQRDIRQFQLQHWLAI", "set-up": "expressed in transfected cells; host or cells: HEK 293 cells (membrane preparations); method as in Luethi et al. (2019b)", "settings": "reference substance; ref Luethi et al. (2019b); read-out: hNET Ki ± SD; cited from earlier work"}, "hDAT": {"target": "hDAT (Homo sapiens, UniProt Q01959)", "sequence (Q01959 whole entry)": "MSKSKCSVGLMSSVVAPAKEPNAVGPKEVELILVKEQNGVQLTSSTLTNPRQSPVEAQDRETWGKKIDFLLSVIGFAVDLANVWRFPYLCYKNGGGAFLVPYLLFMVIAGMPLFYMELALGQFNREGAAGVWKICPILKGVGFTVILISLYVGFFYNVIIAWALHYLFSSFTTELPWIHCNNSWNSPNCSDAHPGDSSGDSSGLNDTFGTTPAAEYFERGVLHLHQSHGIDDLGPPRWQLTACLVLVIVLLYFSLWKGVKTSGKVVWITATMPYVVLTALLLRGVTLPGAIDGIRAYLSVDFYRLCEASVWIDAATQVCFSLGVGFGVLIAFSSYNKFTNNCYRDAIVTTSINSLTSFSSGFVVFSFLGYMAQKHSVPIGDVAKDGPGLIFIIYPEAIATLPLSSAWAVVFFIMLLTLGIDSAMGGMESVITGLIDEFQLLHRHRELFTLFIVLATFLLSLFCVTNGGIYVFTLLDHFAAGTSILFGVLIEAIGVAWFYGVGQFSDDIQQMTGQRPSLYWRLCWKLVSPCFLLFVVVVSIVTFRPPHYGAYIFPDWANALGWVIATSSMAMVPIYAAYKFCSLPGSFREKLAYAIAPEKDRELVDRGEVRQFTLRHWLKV", "set-up": "expressed in transfected cells; host or cells: HEK 293 cells (membrane preparations); method as in Luethi et al. (2019b)", "settings": "reference substance; ref Luethi et al. (2019b); read-out: hDAT Ki ± SD; cited from earlier work"}, "hSERT": {"target": "hSERT (Homo sapiens, UniProt P31645)", "sequence (P31645 whole entry)": "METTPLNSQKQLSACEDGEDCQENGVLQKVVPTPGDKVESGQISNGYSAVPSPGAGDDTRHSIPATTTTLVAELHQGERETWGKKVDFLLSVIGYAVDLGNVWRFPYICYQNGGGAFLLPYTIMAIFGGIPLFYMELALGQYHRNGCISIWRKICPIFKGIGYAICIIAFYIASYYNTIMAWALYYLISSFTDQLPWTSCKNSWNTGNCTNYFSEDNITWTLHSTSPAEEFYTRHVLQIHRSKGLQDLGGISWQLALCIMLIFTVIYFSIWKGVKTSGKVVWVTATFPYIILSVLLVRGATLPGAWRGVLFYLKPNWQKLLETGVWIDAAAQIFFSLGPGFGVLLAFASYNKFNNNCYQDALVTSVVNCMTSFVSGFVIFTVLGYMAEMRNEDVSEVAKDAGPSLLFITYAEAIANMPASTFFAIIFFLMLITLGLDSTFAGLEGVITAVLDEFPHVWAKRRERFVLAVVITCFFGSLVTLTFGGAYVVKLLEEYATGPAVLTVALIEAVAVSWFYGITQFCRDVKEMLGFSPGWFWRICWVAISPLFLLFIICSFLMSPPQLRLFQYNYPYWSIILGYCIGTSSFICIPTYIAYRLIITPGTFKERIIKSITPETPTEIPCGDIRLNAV", "set-up": "expressed in transfected cells; host or cells: HEK 293 cells (membrane preparations); method as in Luethi et al. (2019b)", "settings": "reference substance; ref Luethi et al. (2019b); read-out: hSERT Ki ± SD; cited from earlier work"}, "hα2A adrenergic receptor": {"target": "T3, hα2A adrenergic receptor (Homo sapiens, UniProt P08913)", "T3 sequence (P08913 1-465)": "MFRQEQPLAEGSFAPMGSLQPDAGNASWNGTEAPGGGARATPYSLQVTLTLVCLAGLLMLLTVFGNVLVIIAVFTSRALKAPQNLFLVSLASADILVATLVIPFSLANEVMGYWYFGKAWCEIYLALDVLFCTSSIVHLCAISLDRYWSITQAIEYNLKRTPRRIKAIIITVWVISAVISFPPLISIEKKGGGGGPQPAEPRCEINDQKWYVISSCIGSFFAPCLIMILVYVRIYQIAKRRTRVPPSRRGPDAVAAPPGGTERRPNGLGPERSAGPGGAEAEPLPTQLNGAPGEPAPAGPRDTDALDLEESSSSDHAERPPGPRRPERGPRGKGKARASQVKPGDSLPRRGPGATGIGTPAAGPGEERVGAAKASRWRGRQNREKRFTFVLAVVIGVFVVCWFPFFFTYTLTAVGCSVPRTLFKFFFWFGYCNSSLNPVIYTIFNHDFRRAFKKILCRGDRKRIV", "set-up": "expressed in transfected cells; host or cells: Chinese hamster lung cells (membrane preparations); method as in Luethi et al. (2019b)", "settings": "reference substance; ref Luethi et al. (2019b); read-out: hα2A Ki ± SD; cited from earlier work"}, "hα1A adrenergic receptor": {"target": "T4, hα1A adrenergic receptor (Homo sapiens, UniProt P35348)", "T4 sequence (P35348 1-466)": "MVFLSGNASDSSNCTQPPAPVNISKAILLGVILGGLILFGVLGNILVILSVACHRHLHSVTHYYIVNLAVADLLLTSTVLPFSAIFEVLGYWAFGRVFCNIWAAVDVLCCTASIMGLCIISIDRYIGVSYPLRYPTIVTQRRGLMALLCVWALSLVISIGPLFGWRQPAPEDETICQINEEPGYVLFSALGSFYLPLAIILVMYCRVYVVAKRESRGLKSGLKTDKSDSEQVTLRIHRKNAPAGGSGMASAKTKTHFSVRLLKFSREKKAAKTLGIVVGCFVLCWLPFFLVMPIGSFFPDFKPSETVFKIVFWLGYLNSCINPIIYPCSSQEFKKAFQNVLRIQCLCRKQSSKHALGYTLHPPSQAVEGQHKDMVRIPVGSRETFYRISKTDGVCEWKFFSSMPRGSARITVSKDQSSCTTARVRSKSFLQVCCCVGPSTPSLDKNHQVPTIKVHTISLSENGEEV", "set-up": "expressed in transfected cells; host or cells: Chinese hamster ovary cells (membrane preparations); method as in Luethi et al. (2019b)", "settings": "reference substance; ref Luethi et al. (2019b); read-out: hα1A Ki ± SD; cited from earlier work"}}, "note": "Read-outs that look alike come from different tables or passages of the source."}
{"compound": "COc1cc(CCN)c(OC)cc1Br", "note": "[2C-B, 4-bromo-2,5-dimethoxyphenethylamine]", "values": [{"measurement": "h5-HT2A activation efficacy Emax ± SD", "setting": "human 5-HT2A receptor", "result": "92 ± 8", "unit": "%"}, {"measurement": "h5-HT2B activation efficacy Emax ± SD", "setting": "human 5-HT2B receptor", "result": "52 ± 26", "unit": "%"}]}
{"compound": "CCOc1cc(OC)c(CCN)cc1OC", "note": "[2C-O-2]", "values": [{"measurement": "Ki", "setting": "rTAAR1; read-out: TAAR1 Ki (rat and mouse TAAR1 as worded; compared with the rat value of Ψ-2C-O-2), 2,4,5-trisubstituted derivative, ref Kolaczynska et al., 2019", "result": 0.67, "unit": "µM"}]}
{"compound": "COc1cc(SC(C)C)c(OC)cc1CCN", "note": "[2C-T-4]", "values": [{"measurement": "duration of effects in humans", "setting": "[1]; ref Shulgin and Shulgin, 1991", "result": "12 to 18", "unit": "h"}, {"measurement": "psychoactive dose in humans", "setting": "[1]; ref Shulgin and Shulgin, 1991", "result": "8 to 20", "unit": "mg"}]}
{"compound": "COc1cc(CCN)cc(OC)c1OC(F)F", "note": "[DFM]", "values": [{"measurement": "fold increase in human potency from mescaline", "setting": "[1]", "result": 4, "unit": "fold"}, {"measurement": "fold increase in receptor affinity (Ki values) from mescaline", "setting": "h5-HT2A receptor", "result": 3, "unit": "fold"}]}
{"compound": "COc1cc(CC(C)N)c(OC)cc1C", "note": "(stereo not shown) [DOM]", "values": [{"measurement": "duration of effects in humans", "setting": "[1]; ref Shulgin and Shulgin, 1991", "result": "14 to 20", "unit": "h"}, {"measurement": "psychoactive dose in humans", "setting": "[1]; ref Shulgin and Shulgin, 1991", "result": "3 to 10", "unit": "mg"}]}
{"compound": "CCN(CC)C(=O)[C@@H]1C=C2c3cccc4[nH]cc(c34)C[C@H]2N(C)C1", "note": "[LSD, lysergic acid diethylamide]", "values": [{"measurement": "h5-HT2A activation efficacy Emax ± SD", "setting": "human 5-HT2A receptor", "result": "73 ± 2", "unit": "%"}]}
{"compound": "C=CCOc1cc(OC)c(CC(C)N)cc1OC", "note": "(stereo not shown) [MALM]", "values": [{"measurement": "type of agonism at the 5-HT2A receptor", "setting": "human 5-HT2A receptor", "result": "full agonists"}]}
{"compound": "CNC(C)Cc1ccc2c(c1)OCO2", "note": "(stereo not shown) [MDMA]", "values": [{"measurement": "Ki", "setting": "rTAAR1; reference substance, ref Luethi et al. (2019b), read-out: rTAAR1 Ki ± SD", "result": "0.25 ± 0.01", "unit": "µM"}, {"measurement": "Ki", "setting": "mTAAR1", "result": 3.1, "unit": "µM"}, {"measurement": "Ki", "setting": "hD2 receptor", "result": "> 13", "unit": "µM"}, {"measurement": "Ki", "setting": "hNET", "result": "> 8.7", "unit": "µM"}, {"measurement": "Ki", "setting": "hDAT", "result": "> 8.5", "unit": "µM"}, {"measurement": "Ki", "setting": "hSERT", "result": "> 7.5", "unit": "µM"}, {"measurement": "Ki", "setting": "hα2A adrenergic receptor", "result": 4.6, "unit": "µM"}, {"measurement": "Ki", "setting": "hα1A adrenergic receptor", "result": 6.9, "unit": "µM"}]}
{"compound": "C=C(C)COc1cc(OC)c(CC(C)N)cc1OC", "note": "(stereo not shown) [MMALM]", "values": [{"measurement": "type of agonism at the 5-HT2A receptor", "setting": "human 5-HT2A receptor", "result": "full agonists"}]}
{"compound": "COc1cc(OC)c(OC)cc1CC(C)N", "note": "(stereo not shown) [TMA-2]", "values": [{"measurement": "duration of effects in humans", "setting": "[1]; ref Shulgin and Shulgin, 1991", "result": "8 to 12", "unit": "h"}, {"measurement": "psychoactive dose in humans", "setting": "[1]; ref Shulgin and Shulgin, 1991", "result": "20 to 40", "unit": "mg"}]}
{"compound": "COc1cc(CCN)cc(OC)c1OC(F)(F)F", "note": "[trifluoromescaline]", "values": [{"measurement": "fold increase in human potency from mescaline", "setting": "[1]", "result": "> 9", "unit": "fold"}, {"measurement": "fold increase in receptor affinity (Ki values) from mescaline", "setting": "h5-HT2A receptor", "result": 33, "unit": "fold"}]}
{"compound": "COc1cc(SC(C)C)cc(OC)c1CCN", "note": "[Ψ-2C-T-4, 2,6-dimethoxy-4-isopropylthiophenethylamine]", "values": [{"measurement": "psychoactive dose in humans", "setting": "[1]; ref Shulgin and Shulgin, 1991", "result": "> 12", "unit": "mg"}, {"measurement": "activity in humans", "setting": "[1]; highest dose evaluated (12 mg), anecdotal report, ref Shulgin and Shulgin, 1991", "result": "inactive"}]}
{"compound": "COc1cc(C)cc(OC)c1CC(C)N", "note": "(stereo not shown) [Ψ-DOM, 2,6-dimethoxy-4-methylamphetamine]", "values": [{"measurement": "duration of effects in humans", "setting": "[1]; ref Shulgin and Shulgin, 1991", "result": "6 to 8", "unit": "h"}, {"measurement": "psychoactive dose in humans", "setting": "[1]; ref Shulgin and Shulgin, 1991", "result": "15 to 25", "unit": "mg"}]}
